In brackets after ≈: the same amount, converted by molar mass. Where two headings read alike, the source gives them in different places.
What was measured:
[1] = test system: Alcaligenes Faecolis A1; experiment: MIC by agar dilution method; assay type: cell-based; conditions: Alcaligenes Faecolis A1; agar dilution, 37° C., 18 hours; read-out: MIC
Method: (§1) The MIC is measured by an agar dilution method based on the standard method of the Japanese Society of Chemotherapy (Japanese Society of Chemotherapy: The Revised Method of Determination of MIC Values, Chemotherapy 22, 1126-1128, […]). Specifically, the antibiotic is serially diluted with a 1/50 M phosphate buffer at a pH of 7.3 to prepare a twofold dilution series. One milliliter of each dilution and 9 ml of an agar medium (Heart Infusion Agar; a product of Difco Laboratories) are mixed and allowed to solidify in a Petri dish having a diameter of 9 cm. One loopful of the stock culture of the test microbe is inoculated in trypto-soy buillon (a product of Eiken Kagaku Co., Ltd.) and incubated at 37° C. for 18 hours. The resulting culture broth is diluted to a concentration of about 10^6 cells/ml with physiological saline and inoculated on the agar plate by means of a microplanter.

[2] = test system: Bacillus subtillis ATCC 6633; experiment: MIC by agar dilution method; assay type: cell-based
Method: as §1

[3] = test system: Citrobacter Freundii GN346; experiment: MIC by agar dilution method; assay type: cell-based; conditions: 37° C., 18 hours
Method: as §1

[4] = test system: Comamonas terrigena B996; experiment: MIC by agar dilution method; assay type: cell-based; conditions: 37° C., 18 hours
Method: as §1

[5] = test system: E. coli RGN823; experiment: MIC by agar dilution method; assay type: cell-based; conditions: Escherichia coli, 37° C., 18 hours
Method: as §1

[6] = test system: Ent. cloacae 45; experiment: MIC by agar dilution method; assay type: cell-based; conditions: Enterobacter cloacae, 37° C., 18 hours
Method: as §1

[7] = test system: Ent. sp. E8; experiment: MIC by agar dilution method; assay type: cell-based; conditions: Ent. sp. E8; agar dilution, 37° C., 18 hours; read-out: MIC
Method: as §1

[8] = test system: Enterobacter aerogenes E19; experiment: MIC by agar dilution method; assay type: cell-based; conditions: Klebsiella aerogenes, 37° C., 18 hours
Method: as §1

[9] = test system: Escherichia coli K-12; experiment: MIC by agar dilution method; assay type: cell-based; conditions: K12; Escherichia coli K-12; agar dilution, 37° C., 18 hours; read-out: MIC
Method: as §1

[10] = test system: Klebsiella pneumoniae K13; experiment: MIC by agar dilution method; assay type: cell-based; conditions: 37° C., 18 hours
Method: as §1

[11] = test system: P. rettgeri P7; experiment: MIC by agar dilution method; assay type: cell-based; conditions: Providencia rettgeri; P. rettgeri P7; agar dilution, 37° C., 18 hours; read-out: MIC
Method: as §1

[12] = test system: P. vulgaris GN76; experiment: MIC by agar dilution method; assay type: cell-based; conditions: Proteus vulgaris, 37° C., 18 hours
Method: as §1

[13] = test system: Proteus mirabilis P6; experiment: MIC by agar dilution method; assay type: cell-based; conditions: Proteus mirabilis P6; agar dilution, 37° C., 18 hours; read-out: MIC
Method: as §1

[14] = test system: Providencia sp. P8; experiment: MIC by agar dilution method; assay type: cell-based; conditions: Providencia sp. P8; agar dilution, 37° C., 18 hours; read-out: MIC
Method: as §1

[15] = test system: Ps. aeruginosa NCTC10490; experiment: MIC by agar dilution method; assay type: cell-based; conditions: Pseudomonas aeruginosa, 37° C., 18 hours
Method: as §1

[16] = test system: Pseudomonas aenginosa IFO3445; experiment: MIC by agar dilution method; assay type: cell-based; conditions: 37° C., 18 hours
Method: as §1

[17] = test system: S. aureus Russell; experiment: MIC by agar dilution method; assay type: cell-based; conditions: Staphylococcus aureus
Method: as §1

[18] = test system: S. aureus Smith; experiment: MIC by agar dilution method; assay type: cell-based; conditions: Staphylococcus aureus, 37° C., 18 hours
Method: as §1

[19] = test system: S. epidermidis; experiment: MIC by agar dilution method; assay type: cell-based; conditions: Staphylococcus epidermidis, 37° C., 18 hours
Method: as §1

[20] = test system: Sarcina lutea S19; experiment: MIC by agar dilution method; assay type: cell-based; conditions: Micrococcus luteus, 37° C., 18 hours
Method: as §1

[21] = test system: Ser. marcesceus T55; experiment: MIC by agar dilution method; assay type: cell-based; conditions: 37° C., 18 hours
Method: as §1

[22] = test system: Serratia marcesceus S18; experiment: MIC by agar dilution method; assay type: cell-based; conditions: 37° C., 18 hours
Method: as §1

[23] = test system: Staphylococcus aureus 209P; experiment: MIC by agar dilution method; assay type: cell-based; conditions: 37° C., 18 hours
Method: as §1

[24] = test system: Citrobacter Freundii GN346; experiment: Synergistic effect on MIC, microdilution transfer plate technique; assay type: cell-based
[25] = test system: Proteus vulgaris GN76; experiment: as above; assay type: cell-based
[26] = test system: ddY mice; conditions: mouse, in vivo, ip, 500 mg/kg
[27] = Stability (half life) in phosphate buffers of various pH; assay type: physicochemical; conditions: for half-life: 28° C.
Method: By adding 2% sodium hydroxide or 10% hydrochloric acid, the pH of 0.05 M phosphate buffer is adjusted to 4, 5, 6, 7, 8 and 9, respectively, and distributed into test tubes in an amount of 3 ml. Concentrated solution of antibiotic OA-6129A (0.05 ml) is added to each test tube and allowed to stand in a thermostatic chamber of 28° C. The time course curve of the concentration decrease of antibiotic OA-6129A is drawn by spectrophotometric measurement at 300 nm, from which the half life of the antibiotic at the indicated pH is calculated. As a control, antibiotic PS-5, a carbapenem compound described in the above-cited reference is simultaneously tested.

[28] = Physicochemical properties; conditions: pale yellow powder
[29] = test system: P. sp. P22; experiment: MIC by agar dilution method; assay type: cell-based; conditions: 37° C., 18 hours
Method: as §1

[30] = OA-6129A 25 combined with CER <5

Work on CC[C@H]1C(=O)N2C(C(=O)O)=C(SCCNC(=O)CCNC(=O)C(O)C(C)(C)CO)C[C@H]12 (relative stereo) [OA-6129A] yielded an MIC [1] of 1.56 µg/mL (≈ 3.41 µM), an MIC ([2]; Bacillus, ATCC6633, 18 h) of 0.39 µg/mL (≈ 0.852 µM) and an MIC [3] of 50 µg/mL (≈ 109 µM). It also gave an MIC [4] of 0.05 µg/mL (≈ 0.109 µM), an MIC [5] of 12.5 µg/mL (≈ 27.3 µM) and an MIC [6] of 50 µg/mL (≈ 109 µM). For the same molecule, the MIC [7] was 12.5 µg/mL (≈ 27.3 µM), the MIC [8] was 25 µg/mL (≈ 54.6 µM) and the MIC [9] was 12.5 µg/mL (≈ 27.3 µM). It also gave an MIC [10] of 50 µg/mL (≈ 109 µM), an MIC [11] of 25 µg/mL (≈ 54.6 µM) and an MIC [12] of 100 µg/mL (≈ 219 µM). The MIC [13] was 50 µg/mL (≈ 109 µM), the MIC [14] was 12.5 µg/mL (≈ 27.3 µM) and the MIC [15] was > 100 µg/mL. The MIC [16] was > 100 µg/mL, the MIC ([17]; S. aureus Russell, agar dilution, 37° C., 18 hours, read-out: MIC) was 0.78 µg/mL (≈ 1.7 µM) and the MIC [18] was 1.56 µg/mL (≈ 3.41 µM). The MIC [19] was 1.56 µg/mL (≈ 3.41 µM), the MIC [20] was 0.78 µg/mL (≈ 1.7 µM) and the MIC [21] was 100 µg/mL (≈ 219 µM). For the same molecule, the MIC [22] was 100 µg/mL (≈ 219 µM), the MIC [23] was 0.78 µg/mL (≈ 1.7 µM) and the MIC ([24]; Citrobacter freundii, GN346, alone, heart infusion broth, 10^5 cells/ml) was 50 µg/mL. For the same molecule, the FIC index ([24]; OA-6129A 1.56 combined with ABPC […]) was 1.03, the FIC index ([24]; OA-6129A 1.56 combined with CER 1250) was 1.03 and the FIC index ([24]; OA-6129A 3.13 combined with ABPC 625) was 0.63. It also gave an FIC index ([24]; OA-6129A 3.13 combined with CER 625) of 0.63, an FIC index ([24]; OA-6129A 6.25 combined with ABPC […]) of 0.38 and an FIC index ([24]; OA-6129A 6.25 combined with CER 313) of 0.38. For the same molecule, the FIC index ([24]; OA-6129A 12.5 combined with ABPC […]) was 0.50, the FIC index ([24]; OA-6129A 12.5 combined with CER 313) was 0.50 and the FIC index ([24]; OA-6129A 25 combined with ABPC <5) was 0.50. For the same molecule, the FIC index [24, 30] was 0.50, the FIC index ([25]; OA-6129A 1.56 combined with ABPC (printed 3.3)) was 0.28 and the FIC index ([25]; OA-6129A 1.56 combined with CER 313) was 0.28. It also gave an FIC index ([25]; OA-6129A 3.13 combined with ABPC 156) of 0.19, an FIC index ([25]; OA-6129A 3.13 combined with CER 156) of 0.19 and an FIC index ([25]; OA-6129A 6.25 combined with ABPC 39) of 0.16. It also gave an FIC index ([25]; OA-6129A 6.25 combined with CER 39) of 0.16, an FIC index ([25]; OA-6129A 12.5 combined with ABPC 10) of 0.26 and an FIC index ([25]; OA-6129A 12.5 combined with CER 20) of 0.27. For the same molecule, the FIC index ([25]; OA-6129A 25 combined with ABPC 10) was 0.51, the FIC index [25, 30] was 0.50 and the MIC ([25]; Proteus vulgaris, GN76, alone, heart infusion broth, 10^5 cells/ml) was 50 µg/mL. The acute toxicity [26] was “no acute toxicity is observed”, the half-life ([27]; pH 4, 0.05 M phosphate buffer) was 1.05 h and the half-life ([27]; pH 5, 0.05 M phosphate buffer) was 4.07 h. It also gave a half-life ([27]; pH 6, 0.05 M phosphate buffer) of 21.2 h, a half-life ([27]; pH 7, 0.05 M phosphate buffer) of 57.7 h and a half-life ([27]; pH 8, 0.05 M phosphate buffer) of 128 h. For the same molecule, the half-life ([27]; pH 9, 0.05 M phosphate buffer) was 132 h and the hygroscopicity [28] was “hygroscopic”.
For CC(OS(=O)(=O)O)[C@@H]1C(=O)N2C(C(=O)O)=C(SCCNC(=O)CCNC(=O)C(O)C(C)(C)CO)C[C@H]12 (relative stereo) [OA-6129C], the MIC [1] was 0.39 µg/mL (≈ 0.704 µM), the MIC ([2]; ATCC6633, Bacillus subtillis ATCC 6633, agar dilution, 37° C., 18 hours, read-out: MIC) was 0.1 µg/mL (≈ 0.181 µM) and the MIC [3] was 50 µg/mL (≈ 90.3 µM). For the same molecule, the MIC [4] was 0.1 µg/mL (≈ 0.181 µM), the MIC [5] was 0.39 µg/mL (≈ 0.704 µM) and the MIC [6] was 50 µg/mL (≈ 90.3 µM). For the same molecule, the MIC [7] was 1.56 µg/mL (≈ 2.82 µM), the MIC [8] was 6.25 µg/mL (≈ 11.3 µM) and the MIC [9] was 0.78 µg/mL (≈ 1.41 µM). It also gave an MIC [10] of 12.5 µg/mL (≈ 22.6 µM), an MIC [11] of 0.2 µg/mL (≈ 0.361 µM) and an MIC [29] of 0.78 µg/mL (≈ 1.41 µM). It also gave an MIC [12] of 1.56 µg/mL (≈ 2.82 µM), an MIC [13] of 0.78 µg/mL (≈ 1.41 µM) and an MIC [14] of 0.2 µg/mL (≈ 0.361 µM). For the same molecule, the MIC [15] was > 50 µg/mL, the MIC [16] was 50 µg/mL (≈ 90.3 µM) and the MIC ([17]; 18 h) was 3.13 µg/mL (≈ 5.65 µM). The MIC [18] was 0.78 µg/mL (≈ 1.41 µM), the MIC [19] was 3.13 µg/mL (≈ 5.65 µM) and the MIC [20] was 0.78 µg/mL (≈ 1.41 µM). It also gave an MIC [21] of 12.5 µg/mL (≈ 22.6 µM), an MIC [22] of 12.5 µg/mL (≈ 22.6 µM) and an MIC [23] of 0.1 µg/mL (≈ 0.181 µM). For the same molecule, the acute toxicity [26] was “no acute toxicity is observed” and the “stability relative to OA-6129A” value ([27]; phosphate buffer, pH 4 to 9, 28° C.) was “substantially the same stability as antibiotic OA-6129A”.
